Experimental data taken from US11820773B2, “Tricyclic compounds” (ALIGOS THERAPEUTICS, INC., priority 2020, dated 2023).
pEC50: −log10 of the molar value.

Test system: HBV
Assay: HBV-DNA antiviral assay using HepG2.117 cells (intracellular HBV DNA by qPCR)
Assay type: cell-based, genotype D HBV
Conditions: HBV DNA inhibition, 3 days incubation, 2% DMSO
Procedure, shortened: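 Endpoints are intracellular HBV DNA by qPCR (interpolated from a gBlock standard curve) and ATP-based viability in duplicate plates. Doxycycline-free HepG2.117 Tet-off cells received compounds (9 concentrations, 4-fold steps, 2% DMSO) for 3 days. Inhibition normalised to DMSO wells; EC50/EC90/CC50 by curve fitting.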

| SMILES | pEC50 |
| --- | --- |
| Cc1nn[nH]c1-c1ccc(-n2c(=O)c3c(n4ncc(Cc5ccccc5)c24)CN(C(=O)c2ccc(Br)c(C(F)(F)F)c2)CC3)cc1 [Compound 35, 5-benzyl-12-[4-bromo-3-(trifluoromethyl)benzoyl]-7-[4-(4-methyl-1H-triazol-5-yl)phenyl]-2,3,7,12-tetrazatricyclo[7.4.0.0^2,6]trideca-1(9),3,5-trien-8-one] | > 7.30 |
| CC(C)Cc1cnn2c3c(c(=O)n(-c4ccc(-c5nncn5C)cc4)c12)C[C@@H](C)N(C(=O)c1ccc(Br)c(Cl)c1)C3 [Compound 60a, (11R)-12-(4-bromo-3-chlorobenzoyl)-11-methyl-7-[4-(4-methyl-1,2,4-triazol-3-yl)phenyl]-5-(2-methylpropyl)-2,3,7,12-tetraazatricyclo[7.4.0.0^{2,6}]trideca-1(9),3,5-trien-8-one] | > 7.30 |
| CC(C)Cc1cnn2c3c(c(=O)n(-c4ccc(-c5nncn5C)cc4)c12)C[C@H](C)N(C(=O)c1ccc(Br)c(Cl)c1)C3 [Compound 60b, (11S)-12-(4-bromo-3-chlorobenzoyl)-11-methyl-7-[4-(4-methyl-1,2,4-triazol-3-yl)phenyl]-5-(2-methylpropyl)-2,3,7,12-tetraazatricyclo[7.4.0.0^{2,6}]trideca-1(9),3,5-trien-8-one] | 6.30 to 7.30 |

Same assay, conditions: Hepatitis B virus, 72 h, HBV DNA inhibition, 3 days incubation, 2% DMSO

| SMILES | pEC50 |
| --- | --- |
| CNC(=O)c1ccc(-n2c(=O)c3c(n4ncc(Cc5ccsc5)c24)CN(C(=O)c2ccc(Br)c(C(F)(F)F)c2)CC3)cc1 [Compound 20, 4-[12-[4-bromo-3-(trifluoromethyl)benzoyl]-8-oxo-5-(3-thienylmethyl)-2,3,7,12-tetrazatricyclo[7.4.0.0^2,6]trideca-1(9),3,5-trien-7-yl]-N-methyl-benzamide] | > 7.30 |
| CNc1nnc2cc(-n3c(=O)c4c(n5ncc(Cc6ccccc6)c35)CN(C(=O)c3ccc(Br)c(Cl)c3)CC4)ccn12 [Compound 23, 5-benzyl-12-(4-bromo-3-chloro-benzoyl)-7-[3-(methylamino)-[1,2,4]triazolo[4,3-a]pyridin-7-yl]-2,3,7,12-tetrazatricyclo[7.4.0.0^2,6]trideca-1(9),3,5-trien-8-one] | > 7.30 |
| CNC(=O)c1ccc(-n2c(=O)c3c(n4ncc(CC5CC5)c24)CN(C(=O)c2ccc(Br)c(C(F)(F)F)c2)CC3)cc1 [Compound 24, 4-[12-[4-bromo-3-(trifluoromethyl)benzoyl]-5-(cyclopropylmethyl)-8-oxo-2,3,7,12-tetrazatricyclo[7.4.0.0^2,6]trideca-1(9),3,5-trien-7-yl]-N-methyl-benzamide] | > 7.30 |
| Cn1cnnc1-c1ccc(-n2c(=O)c3c(n4ncc(Cc5ccccc5)c24)CN(C(=O)c2ccc(Br)c(C(F)(F)F)c2)CC3)cc1 [Compound 25, 5-benzyl-12-[4-bromo-3-(trifluoromethyl)benzoyl]-7-[4-(4-methyl-1,2,4-triazol-3-yl)phenyl]-2,3,7,12-tetrazatricyclo[7.4.0.0^2,6]trideca-1(9),3,5-trien-8-one] | > 7.30 |
| CNc1n[nH]c2cc(-n3c(=O)c4c(n5ncc(Cc6ccccc6)c35)CN(C(=O)c3ccc(Br)c(C(F)(F)F)c3)CC4)ccc12 [Compound 26, 5-benzyl-12-[4-bromo-3-(trifluoromethyl)benzoyl]-7-[3-(methylamino)-1H-indazol-6-yl]-2,3,7,12-tetrazatricyclo[7.4.0.0^2,6]trideca-1(9),3,5-trien-8-one] | > 7.30 |
| CNc1n[nH]c2cc(-n3c(=O)c4c(n5ncc(CC6CC6)c35)CN(C(=O)c3ccc(Br)c(Cl)c3)CC4)ccc12 [Compound 27, 12-(4-bromo-3-chloro-benzoyl)-5-(cyclopropylmethyl)-7-[3-(methylamino)-1H-indazol-6-yl]-2,3,7,12-tetrazatricyclo[7.4.0.0^2,6]trideca-1(9),3,5-trien-8-one] | > 7.30 |
| CNc1n[nH]c2cc(-n3c(=O)c4c(n5ncc(CC6CC6)c35)CN(C(=O)c3ccc(Br)c(C(F)(F)F)c3)CC4)ccc12 [Compound 28, 12-[4-bromo-3-(trifluoromethyl)benzoyl]-5-(cyclopropylmethyl)-7-[3-(methylamino)-1H-indazol-6-yl]-2,3,7,12-tetrazatricyclo[7.4.0.0^2,6]trideca-1(9),3,5-trien-8-one] | > 7.30 |
| CNC(=O)c1cc(-n2c(=O)c3c(n4ncc(Cc5ccccc5)c24)CN(C(=O)c2ccc(Br)c(C(F)(F)F)c2)CC3)nn1C [Compound 29, 5-[5-benzyl-12-[4-bromo-3-(trifluoromethyl)benzoyl]-8-oxo-2,3,7,12-tetrazatricyclo[7.4.0.0^2,6]trideca-1(9),3,5-trien-7-yl]-N,2-dimethyl-pyrazole-3-carboxamide] | > 7.30 |
| CNc1nnc2cc(-n3c(=O)c4c(n5ncc(Cc6ccccc6)c35)CN(C(=O)c3ccc(Br)c(C(F)(F)F)c3)CC4)ccn12 [Compound 30, 5-benzyl-12-[4-bromo-3-(trifluoromethyl)benzoyl]-7-[3-(methylamino)-[1,2,4]triazolo[4,3-a]pyridin-7-yl]-2,3,7,12-tetrazatricyclo[7.4.0.0^2,6]trideca-1(9),3,5-trien-8-one] | > 7.30 |
| Cc1nnc(-c2ccc(-n3c(=O)c4c(n5ncc(Cc6ccccc6)c35)CN(C(=O)c3ccc(Br)c(Cl)c3)CC4)cc2)n1C [Compound 31, 5-benzyl-12-(4-bromo-3-chloro-benzoyl)-7-[4-(4,5-dimethyl-1,2,4-triazol-3-yl)phenyl]-2,3,7,12-tetrazatricyclo[7.4.0.0^2,6]trideca-1(9),3,5-trien-8-one] | > 7.30 |
| Cc1nnc(-c2ccc(-n3c(=O)c4c(n5ncc(Cc6ccccc6)c35)CN(C(=O)c3ccc(Br)c(C(F)(F)F)c3)CC4)cc2)n1C [Compound 32, 5-benzyl-12-[4-bromo-3-(trifluoromethyl)benzoyl]-7-[4-(4,5-dimethyl-1,2,4-triazol-3-yl)phenyl]-2,3,7,12-tetrazatricyclo[7.4.0.0^2,6]trideca-1(9),3,5-trien-8-one] | > 7.30 |
| Cn1cncc1-c1ccc(-n2c(=O)c3c(n4ncc(Cc5ccccc5)c24)CN(C(=O)c2ccc(Br)c(C(F)(F)F)c2)CC3)cc1 [Compound 33, 5-benzyl-12-[4-bromo-3-(trifluoromethyl)benzoyl]-7-[4-(3-methylimidazol-4-yl)phenyl]-2,3,7,12-tetrazatricyclo[7.4.0.0^2,6]trideca-1(9),3,5-trien-8-one] | > 7.30 |
| Cc1cnnn1-c1ccc(-n2c(=O)c3c(n4ncc(Cc5ccccc5)c24)CN(C(=O)c2ccc(Br)c(C(F)(F)F)c2)CC3)cc1 [Compound 34, 5-benzyl-12-[4-bromo-3-(trifluoromethyl)benzoyl]-7-[4-(5-methyltriazol-1-yl)phenyl]-2,3,7,12-tetrazatricyclo[7.4.0.0^2,6]trideca-1(9),3,5-trien-8-one] | > 7.30 |
| Cc1ncnn1-c1ccc(-n2c(=O)c3c(n4ncc(Cc5ccccc5)c24)CN(C(=O)c2ccc(Br)c(C(F)(F)F)c2)CC3)cc1 [Compound 36, 5-benzyl-12-[4-bromo-3-(trifluoromethyl)benzoyl]-7-[4-(5-methyl-1,2,4-triazol-1-yl)phenyl]-2,3,7,12-tetrazatricyclo[7.4.0.0^2,6]trideca-1(9),3,5-trien-8-one] | > 7.30 |
| C#CCc1cnn2c3c(c(=O)n(-c4ccc(C(=O)NC)cc4)c12)CCN(C(=O)c1ccc(Br)c(C(F)(F)F)c1)C3 [Compound 42, 4-[12-[4-bromo-3-(trifluoromethyl)benzoyl]-8-oxo-5-prop-2-ynyl-2,3,7,12-tetrazatricyclo[7.4.0.0^2,6]trideca-1(9),3,5-trien-7-yl]-N-methyl-benzamide] | > 7.30 |
| C[C@@H]1Cc2c(n3ncc(Cc4ccccc4)c3n(-c3ccc(-n4nnnc4C(F)(F)F)cc3)c2=O)CN1C(=O)c1ccc(Br)c(C(F)(F)F)c1 [Compound 87, 5-benzyl-12-[4-bromo-3-(trifluoromethyl)benzoyl]-11-methyl-7-[4-[5-(trifluoromethyl)tetrazol-1-yl]phenyl]-2,3,7,12-tetrazatricyclo[7.4.0.0^2,6]trideca-1(9),3,5-trien-8-one] | 6.30 to 7.30 |
| CC(C)[C@H](N)C(=O)OCN(C)C(=O)c1ccc(-n2c(=O)c3c(n4ncc(CC5CC5)c24)CN(C(=O)c2ccc(Br)c(C(F)(F)F)c2)[C@@H](C)C3)cc1 [Compound 90, [[4-[(11S)-12-[4-bromo-3-(trifluoromethyl)benzoyl]-5-(cyclopropylmethyl)-11-methyl-8-oxo-2,3,7,12-tetrazatricyclo[7.4.0.0^2,6]trideca-1(9),3,5-trien-7-yl]benzoyl]-methylamino]methyl (2S)-2-amino-3-methyl-butanoate] | < 5.30 |
| CC(C)[C@@H](N)C(=O)OCN(C)C(=O)c1ccc(-n2c(=O)c3c(n4ncc(CC5CC5)c24)CN(C(=O)c2ccc(Br)c(C(F)(F)F)c2)[C@H](C)C3)cc1 [Compound 106, [[4-[(11R)-12-[4-bromo-3-(trifluoromethyl)benzoyl]-5-(cyclopropylmethyl)-11-methyl-8-oxo-2,3,7,12-tetrazatricyclo[7.4.0.0^2,6]trideca-1(9),3,5-trien-7-yl]benzoyl]-methyl-amino]methyl (2S)-2-amino-3-methyl-butanoate] | > 7.30 |
